In US20240425512A1, “NITROGEN-CONTAINING HETEROCYCLIC COMPOUND, PHARMACEUTICAL COMPOSITION THEREOF AND APPLICATION THEREOF” (280 Bio, Inc., priority 2023, published 2024):
Where two headings read alike, the source gives them in different places.

Experiments:
[1] = tested on: AGS gastric cancer cell line with KRAS G12D mutation; experiment: Proliferation inhibition on RAS cell lines measured by CTG (CellTiter Glo), AGS; format: cell-based; settings: Table 1, AGS cells, incubated for 5 days
Text: (§1) NCI-H358 is a human non-small cell lung cancer cell line with KRAS G12C mutation; AGS is a gastric cancer cell line with KRAS G12D mutation; SW620 is a colon cancer cell with KRAS G12V mutation; NCI-H460 is a non-small cell lung cancer cell with KRAS Q61H mutation; MKN1 is a wild-type gastric cancer cell with KRAS-amplified; LS513 is a colon cancer cell with KRAS G12D mutation; LoVo is a colon cancer cell with KRAS G13D mutation; NCI-H441 is a lung cancer cell with KRAS G12V mutation, and Capan-2 is a pancreatic cancer cell with KRAS G12V mutation.
(§2) The proliferation inhibitory effect of the compounds on various mutations was evaluated by determining the proliferation inhibitory activity of the compounds on these cell lines.
(§3) The assay was conducted on either 384-well plates or 96-well plates. The procedures are as follows:
(§4) The cell suspensions were added to 384- or 96-well plates (384-well plate: 50 μL; 96-well plate: 100 μL) except for peripheral wells. The plates were placed in a carbon dioxide incubator overnight. NCI-H358, AGS, NCI-H460, MKN-1, LS513, LoVo, and NCI-H441 were placed in a 5%, 370 carbon dioxide incubator overnight, and SW620 was placed in a 0%, 370 carbon dioxide incubator overnight. The HPD300 micro-dosing instrument was used to add the corresponding concentration of compound to each well (9-10 concentration gradients of compound were obtained by 3-fold dilution). Cell plates were incubated in a carbon dioxide incubator for 5-6 days. NCI-H358, AGS, NCI-H460 and MKN-1 were incubated at 5%, 37° incubator and SW620 was incubated at 0%, 370 incubator. On the day of plate measurement, the 384- or 96-well plates were first equilibrated at room temperature for 10-30 min, then CellTiter Glo reagent (384-well plate: 25 μL; 96-well plate: 100 μL) was added to the 384- or 96-well plate, shaken for 10 min away from light, and incubated for 10 min. The plates were placed into Victor NIVO or ENVIDION reader plates, and XLFit was utilized to plot the pharmacodynamic inhibition curve and calculate the IC50 value. “IC50>10 μM” is denoted by “*”, “10 μM≥IC50≥1 μM” is denoted by “**”, and “1 μM≥IC50>100 nM” is denoted by “***”, “IC50<100 nM” is denoted by “****”

[2] = tested on: NCI-H358 human non-small cell lung cancer cell line with KRAS G12C mutation; experiment: Proliferation inhibition on RAS cell lines measured by CTG, NCI-H358; format: cell-based; settings: Table 1, NCI-H358 cells, incubated for 6 days, CellTiter Glo, read-out: IC50 (H358 ^b)
Text: as §1, §2, §3, §4

[3] = tested on: SW620 colon cancer cell with KRAS G12V mutation; experiment: Proliferation inhibition on RAS cell lines measured by CTG, SW620; format: cell-based; settings: Table 1, SW620 cells, incubated for 6 days, CellTiter Glo, read-out: IC50 (SW620 ^c)
Text: as §1, §2, §3, §4

[4] = tested on: NCI-H460 non-small cell lung cancer cell with KRAS Q61H mutation; experiment: Proliferation inhibition on RAS cell lines measured by CTG, NCI-H460; format: cell-based; settings: Table 1, NCI-H460 cells, incubated for 6 days, CellTiter Glo, read-out: IC50 (NCI-H460 ^d)
Text: as §1, §2, §3, §4

[5] = tested on: MKN1 wild-type gastric cancer cell with KRAS-amplified; experiment: Proliferation inhibition on RAS cell lines measured by CTG, MKN1; format: cell-based; settings: Table 1, MKN1 cells, incubated for 6 days, CellTiter Glo, read-out: IC50 (MKN1 ^e)
Text: as §1, §2, §3, §4

[6] = tested on: LS513 colon cancer cell with KRAS G12D mutation; experiment: Proliferation inhibition on RAS cell lines measured by CTG, LS513; format: cell-based; settings: LS513 cells, incubated for 6 days, read-out: IC50 (LS513^f)
Outline: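 Cells were seeded overnight in a 5% CO2 incubator. Compound was added as 9-10 point, 3-fold dilutions and incubated 5-6 days, with NCI-H460 and AGS stated at 5% CO2, 37°. Viability was read by CellTiter-Glo luminescence, and IC50 was taken from the inhibition curve.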

[7] = tested on: LoVo colon cancer cell with KRAS G13D mutation; experiment: Proliferation inhibition on RAS cell lines measured by CTG, LoVo; format: cell-based; settings: LoVo cells, incubated for 6 days, read-out: IC50 (LoVo^g)
Text: as §1, §2, §3, §4

[8] = tested on: NCI-H441 lung cancer cell with KRAS G12V mutation; experiment: Proliferation inhibition on RAS cell lines measured by CTG, NCI-H441; format: cell-based; settings: NCI-H441 cells, incubated for 6 days
Text: as §1, §2, §3, §4

[9] = Pharmacokinetic study in mice after intravenous administration; format: in vivo; settings: mouse, 5 mg/kg, male C57BL/6J mice, plasma
Method: (§5) After intravenous and oral administration in male C57BL/6J mice (6-8 weeks), plasma samples were collected through the orbital venous plexus at 8 time points (5 min, 15 min, 30 min, 1 h, 2 h, 4 h, 7 h, 24 h), and the collected blood samples were transferred to microcentrifuge tubes containing EDTA-K2 anticoagulant, and centrifuged at 4° C., 4,000 g. After 5 min, the supernatant was taken and stored in a refrigerator at −75° C. ±15° C. LC-MS/MS was used to detect the concentrations of the compounds in the plasma at different time points, and the relevant pharmacokinetic parameters […] were calculated using WinNonlin software.

[10] = Pharmacokinetic study in mice after oral administration; format: in vivo; settings: mouse, 30 mg/kg, male C57BL/6J mice, plasma
Method: as §5

## CCc1c(F)ccc2cc(O)cc(-c3ncc4c(N5CC(C)(O)CCN5)nc(OCC56CCCN5CC(F)C6)nc4c3F)c12 (single isomer, unassigned) [Compound 2-1]
[1]
  IC50: < 0.1 µM
[2]
  IC50: < 0.1 µM
[3]
  IC50: < 0.1 µM
[4]
  IC50: 1 to 10 µM
[5]
  IC50: < 0.1 µM
[6]; Table 1, CellTiter Glo
  IC50: < 0.1 µM
[7]; Table 1, CellTiter Glo
  IC50: < 0.1 µM
[8]; Table 1, CellTiter Glo, read-out: IC50 (NCI-H441^h)
  IC50: 0.1 to 1 µM

## C#Cc1c(F)ccc2cc(O)cc(-c3ncc4c(N5CCCCCN5)nc(OC[C@@]56CCCN5C[C@H](F)C6)nc4c3F)c12 [Compound 4]
[1]; Homo sapiens, 120 h
  IC50: < 0.1 µM
[2]; Homo sapiens, 144 h
  IC50: < 0.1 µM
[3]; Homo sapiens, SW-620, 144 h
  IC50: < 0.1 µM
[4]; Homo sapiens, 144 h
  IC50: 0.1 to 1 µM
[5]; Homo sapiens, MKN-1, 144 h
  IC50: < 0.1 µM
[6]; Homo sapiens, LS-513, 144 h, Table 1, numeric value
  IC50: 0.0036 µM
[6]; Homo sapiens, LS-513, 144 h, Table 1, CellTiter Glo
  IC50: < 0.1 µM
[7]; Homo sapiens, LoVo, 144 h, Table 1, numeric value
  IC50: 0.0078 µM
[7]; Homo sapiens, LoVo, 144 h, Table 1, CellTiter Glo
  IC50: < 0.1 µM
[8]; Homo sapiens, NCI-H441, 144 h, Table 1, numeric value
  IC50: 0.0036 µM
[8]; Homo sapiens, NCI-H441, 144 h, Table 1, CellTiter Glo
  IC50: < 0.1 µM
[9]
  AUC(0-inf): 24300 ng·h/mL
  AUC(0-t): 24300 ng·h/mL
  C0: 96100 ng/mL
  clearance: 3.43 mL/min/kg
[9]; 5% DMSO + 10% Solutol HS15 + 85% (20% HP-β-CD in water)
  half-life: 2.63 h
[9]; read-out: Vss
  Vd: 0.205 L/kg
[10]
  AUC(0-inf): 10400 ng·h/mL
  AUC(0-t): 10400 ng·h/mL
  Cmax: 2290 ng/mL
  Tmax: 4 h
[10]; 0.1% Tween 80 + 0.5% MC in water
  half-life: 1.89 h
